{"source": "patent US20170321163A1", "about": "“ENZYME STABILIZERS” (Henkel AG & Co. KGaA, priority 2014, published 2017)", "tested_on": "protease", "assay": "Storage stability of protease in detergent formulation, residual proteolytic activity by AAPF-pNA assay", "format": "biochemical", "conditions": "1% candidate compound, 1% protease in detergent formulation; stored 8 weeks at 30° C.; AAPF-pNA substrate, 25° C., pH 8.6, 410 nm", "description": "The storage stability of protease-containing detergents and cleaning agents was tested for use as enzyme stabilizers in the presence of candidate compounds. For this purpose, the candidate compounds were formulated in the presence of up to 1% (w/w) 1,2-propanediol in a detergent or cleaning agent formulation (see Table 2). The protease (1% PUR) was then added to the formulation, and the formulation stored for 8 weeks at 30° C.\nIn parallel batches, the proteolytic activity of 1% protease was determined in 4% PG (1,2-propanediol), 85% matrix (see Table 1), then, each following incubation with 1% of the candidate compound (specified in w/w; QS 100% with water) determined in half of the batches in the formulation as indicated in Table 1 by the release of the chromophore para-nitroaniline from the succinyl-alanine-alanine-proline-phenylalanine para-nitroanilide substrate (AAPF-pNA; Bachem L-1400). The release of the pNA caused an increase in the absorbance at 410 nm, the progress over time of which is a measure of enzymatic activity. […]\nFor evaluation, the initial values for the proteolytic activity of the agent in question were compared to the values determined after storage. […] The stabilizing effect of each tested compound is thus measured as a relative percentage increase in the residual protease activity.", "data": [{"smiles": "CC(=O)[O-].CCn1cc[n+](C)c1", "note": "[1-ethyl-3-methylimidazolium acetate]", "values": [{"measurement": "Relative residual activity after incubation with KV", "result": 122, "unit": "%"}]}]}
